This passage reports EC50 results from publication PMC4072711, “A GPBAR1 (TGR5) Small Molecule Agonist Shows Specific Inhibitory Effects on Myeloid Cell Activation In Vitro and Reduces Experimental Autoimmune Encephalitis (EAE) In Vivo” (PLoS ONE, 2014).

For orientation: EC50 means the concentration that produces a half-maximal response.

The experiment concerns the target T1, GPBAR1 (TGR5) (Homo sapiens, UniProt Q8TDU6).
T1 sequence (Q8TDU6 1-330): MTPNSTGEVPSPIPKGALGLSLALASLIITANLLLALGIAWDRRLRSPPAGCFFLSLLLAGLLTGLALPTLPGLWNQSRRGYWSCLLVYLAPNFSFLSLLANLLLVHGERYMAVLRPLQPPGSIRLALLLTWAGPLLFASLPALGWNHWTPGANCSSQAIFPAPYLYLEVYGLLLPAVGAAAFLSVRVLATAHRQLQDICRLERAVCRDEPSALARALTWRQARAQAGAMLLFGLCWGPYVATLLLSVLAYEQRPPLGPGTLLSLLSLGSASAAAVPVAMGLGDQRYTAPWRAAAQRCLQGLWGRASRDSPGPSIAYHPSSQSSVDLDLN
Nature of the experiment: AlphaScreen cAMP assay in CHO cells expressing human GPBAR1; no response in parental CHO cells.

For BIX02694, the EC50 worked out at 9 nM.
